# From patent US12129276B2, “Oxysterols and methods of use thereof” (SAGE THERAPEUTICS, INC., priority 2014, dated 2024)
# Target: T1, NMDA receptor (GRIN1/GRIN2A subunits) expressed in HEK cells (Homo sapiens, UniProt Q05586+Q12879)
# T1 construct: expressed in transfected cells
# Test: Whole-cell patch clamp of mammalian cells, NMDA potentiation
# Assay type: cell-based
# Design: key: “A” indicates >5 to 50%; B: >50%; C indicates not active in the assay
# Settings: 1 μM test article, 30 μM NMDA and 5.0 μM glycine, holding potential −80 mV
# Description: NMDA potentiation was assessed using either whole cell patch clamp of mammalian cells which expressed NMDA receptors, or using two-electrode voltage clamp (TEVC) of Xenopus laevis oocytes expressing NMDA receptors.
# The whole-cell patch-clamp technique was used to investigate the effects of compounds on the NMDA receptor (GRIN1/GRIN2A subunits) expressed in HEK cells. NMDA/Glycine peak and steady-state currents were recorded from stably transfected cells expressing the NMDA receptor and the modulatory effects of the test items on these currents were investigated.
# Cells were stably transfected with human GRIN1 (variant NR1-3). These cells were transiently transfected (Lipofectamine™) with GRIN2A cDNA and CD8 (pLeu) antigene cDNA. About 24-72 hours following transfection 1 μl Dynabeads M-45 CD8 was added to identify successfully transfected cells (Jurman et al., Biotechniques (1994) 17:876-881). Cells were passaged to a confluence of 50-80%. Cells were seeded onto Poly-L-Lysine coated cover slips covered with culture complete medium in a 35 mm culture dish. Confluent clusters of cells are electrically coupled (Pritchett et al., Science (1988), 242:1306-8). Because responses in distant cells are not adequately voltage clamped and because of uncertainties about the extent of coupling (Verdoorn et al., Neuron (1990), 4:919-28), cells were cultivated at a density that enables single cells (without visible connections to neighboring cells) to be measured. Cells were incubated at 37° C. in a humidified atmosphere with 5% CO2 (rel. humidity about 95%). The cells were continuously maintained in and passaged in sterile culture flasks containing a 1:1 mixture of Dulbecco's modified eagle medium and nutrient mixture F-12 (D-MEM/F-12 1×, liquid, with L-Glutamine) supplemented with 9% fetal bovine serum and 0.9% Penicillin/Streptomycin solution. The complete medium was supplemented with 3.0 μg/ml Puromycin.
# Whole cell currents were measured with HEKA EPC-10 amplifiers using PatchMaster software. Cell culture dishes for recordings were placed on the dish holder of the microscope and continuously perfused (1 ml/min) with “bath solution” (NaCl 137 mM, KCl 4 mM, CaCl2) 1.8 mM, MgCl2 1 mM, HEPES 10 mM, D-Glucose 10 mM, pH (NaOH) 7.4). All solutions applied to cells including the pipette solution were maintained at room temperature (19° C.-30° C.). After formation of a Gigaohm seal between the patch electrodes and transfected individual HEK 293 cells (pipette resistance range: 2.5 MΩ-6.0 MΩ; seal resistance range: >1 GQ) the cell membrane across the pipette tip was ruptured to assure electrical access to the cell interior (whole-cell patch-configuration). At this point the bath solution is switched to “NMDA bath solution” (NaCl 137 mM, KCl 4 mM, CaCl2) 2.8 mM, HEPES 10 mM, D-Glucose 10 mM, Cremophore 0.02%, pH (NaOH) 7.4). NMDA inward currents were measured upon application of 30 μM NMDA (and 5.0 μM Glycine) to patch-clamped cells (2 applications) for 5 s. The cells were voltage clamped at a holding potential of −80 mV. For the analysis of test articles, NMDA receptors were stimulated by 30 μM NMDA and 5.0 μM Glycine after sequential pre-incubation of increasing concentrations of the test article. Pre-incubation duration was 30 s. Stimulation duration was 5 s Test articles were dissolved in DMSO to form stock solutions of 0.1 mM and 1 mM. Test articles were diluted to 0.1 μM and 1 μM in “NMDA bath solution”. Both concentrations of test articles were tested on each cell. […]
# T1 sequence (Q12879 23-1464, other chains not shown): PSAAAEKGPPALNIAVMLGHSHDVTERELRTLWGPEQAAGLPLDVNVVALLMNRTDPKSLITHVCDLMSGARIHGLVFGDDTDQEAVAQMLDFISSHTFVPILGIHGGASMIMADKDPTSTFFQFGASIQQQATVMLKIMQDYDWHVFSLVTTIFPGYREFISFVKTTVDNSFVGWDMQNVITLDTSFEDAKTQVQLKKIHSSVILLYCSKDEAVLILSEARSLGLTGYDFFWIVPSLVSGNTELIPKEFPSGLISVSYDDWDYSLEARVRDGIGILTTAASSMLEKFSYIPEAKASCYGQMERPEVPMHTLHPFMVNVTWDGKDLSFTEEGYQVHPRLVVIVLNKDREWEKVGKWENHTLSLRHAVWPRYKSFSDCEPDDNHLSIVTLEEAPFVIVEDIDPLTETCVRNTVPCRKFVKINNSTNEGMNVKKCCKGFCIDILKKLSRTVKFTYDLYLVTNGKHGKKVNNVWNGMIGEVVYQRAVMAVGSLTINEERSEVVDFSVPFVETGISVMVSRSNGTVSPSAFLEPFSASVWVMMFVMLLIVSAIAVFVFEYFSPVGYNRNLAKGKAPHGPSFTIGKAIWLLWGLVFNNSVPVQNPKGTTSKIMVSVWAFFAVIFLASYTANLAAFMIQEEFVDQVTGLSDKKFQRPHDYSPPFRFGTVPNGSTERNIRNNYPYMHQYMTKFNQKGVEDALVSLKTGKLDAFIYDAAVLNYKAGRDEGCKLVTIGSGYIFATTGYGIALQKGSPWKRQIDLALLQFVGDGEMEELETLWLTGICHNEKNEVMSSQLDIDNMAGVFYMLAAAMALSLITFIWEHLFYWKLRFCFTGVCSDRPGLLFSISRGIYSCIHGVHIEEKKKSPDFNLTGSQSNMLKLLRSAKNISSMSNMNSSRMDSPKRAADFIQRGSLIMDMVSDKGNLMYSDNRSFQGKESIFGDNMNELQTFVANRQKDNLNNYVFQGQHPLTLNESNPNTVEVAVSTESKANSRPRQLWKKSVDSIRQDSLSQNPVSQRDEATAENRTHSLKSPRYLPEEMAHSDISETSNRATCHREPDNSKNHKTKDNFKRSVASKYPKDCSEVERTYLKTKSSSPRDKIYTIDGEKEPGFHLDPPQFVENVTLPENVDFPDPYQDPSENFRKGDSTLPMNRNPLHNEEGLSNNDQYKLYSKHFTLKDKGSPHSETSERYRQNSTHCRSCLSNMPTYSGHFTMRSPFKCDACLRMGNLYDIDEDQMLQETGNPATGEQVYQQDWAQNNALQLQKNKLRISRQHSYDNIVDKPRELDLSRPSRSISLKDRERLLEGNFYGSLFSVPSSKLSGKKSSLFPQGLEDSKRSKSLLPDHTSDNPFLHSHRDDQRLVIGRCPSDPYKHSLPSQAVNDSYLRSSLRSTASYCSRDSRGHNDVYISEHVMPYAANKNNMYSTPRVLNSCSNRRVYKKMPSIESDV
row,Structure (SMILES),NMDA 1a2A (%) Potentiation 1 μM
1,C[C@H](CCC(C)(C)O)[C@H]1CC[C@H]2[C@@H]3CC=C4C[C@@H](O)CC[C@]4(CO)[C@H]3CC[C@]12C,A (“A” indicates >5 to 50%)
2,COC[C@]12CC[C@](C)(O)CC1=CC[C@@H]1[C@@H]2CC[C@]2(C)[C@@H]([C@H](C)CCCO)CC[C@@H]12,A (“A” indicates >5 to 50%)
3,COC[C@]12CC[C@](C)(O)C[C@@H]1CC[C@H]1[C@@H]3CC[C@H]([C@H](C)CCCO)[C@@]3(C)CC[C@@H]12,C
4,COC[C@]12CC[C@](C)(O)CC1=CC[C@@H]1[C@@H]2CC[C@]2(C)[C@@H]([C@H](C)CCC(C)(C)O)CC[C@@H]12 [drawing 25],A (“A” indicates >5 to 50%)
5,COC[C@]12CC[C@](C)(O)C[C@@H]1CC[C@H]1[C@@H]3CC[C@H]([C@H](C)CCC(C)(C)O)[C@@]3(C)CC[C@@H]12 [drawing 26],B (B: >50%)

# Target: T2, NR1/NR2A glutamate receptors expressed in mammalian cells (Homo sapiens, UniProt Q05586+Q12879)
# T2 construct: expressed in transfected cells
# Test: Whole-cell patch clamp of mammalian cells (IWB, Ion Works Barracuda)
# Assay type: cell-based
# Settings: 3 μM test article, co-application with EC20 L-glutamate and 30 μM glycine
# Description: The whole-cell patch-clamp technique was used to investigate the effects of compounds on NR1/NR2A glutamate receptors expressed in mammalian cells.
# Test article effects were evaluated in 8-point concentration-response format (4 replicate wells/concentration). All test and control solutions contained 0.3% DMSO and 0.01% Kolliphor® EL (C5135, Sigma). The test article formulations were loaded in a 384-well compound plate using an automated liquid handling system (SciClone ALH3000, Caliper LifeScienses). The measurements were performed using Ion Works Barracuda platform following this procedure: Electrophysiological Procedures: • a) Intracellular solution (mM): 50 mM CsCl, 90 mM CsF, 2 mM MgCl2, 5 mM EGTA, 10 mM HEPES. Adjust to pH 7.2 with CsOH. • b) Extracellular solution, HB-PS (composition in mM): NaCl, 137; KCl, 1.0; CaCl2, 5; HEPES, 10; Glucose, 10; pH adjusted to 7.4 with NaOH (refrigerated until use). • c) Holding potential: −70 mV, potential during agonist/PAM application: −40 mV. Recording Procedure: • a) Extracellular buffer will be loaded into the PPC plate wells (11 μL per well). Cell suspension will be pipetted into the wells (9 μL per well) of the PPC planar electrode. • b) Whole-cell recording configuration will be established via patch perforation with membrane currents recorded by on-board patch clamp amplifiers. • c) Two recordings (scans) will be performed. First, during pre-application of PAM alone (duration of pre-application—5 min) and second, during test articles and agonist (EC20 L-glutamate and 30 μM glycine) co-application to detect positive modulatory effects of the test article.
# Test Article Administration: The first pre-application will consist of the addition of 20 μL of 2× concentrated test article solution and, second, of 20 μL of 1× concentrated test article and agonist at 10 μL/s (2 second total application time).
# T2 sequence (Q12879 23-1464, other chains not shown): as above
row,Structure (SMILES),GluN2A PCA IWB Ephys % potentiation at 3 μM
1,COC[C@]12CC[C@](C)(O)C[C@@H]1CC[C@H]1[C@@H]3CC[C@H]([C@H](C)CCC(O)C(F)(F)F)[C@@]3(C)CC[C@@H]12 (stereo partly shown),B (“B” indicates potentiation of >150%)
2,COC[C@]12CC[C@](C)(O)CC1=CC[C@@H]1[C@@H]2CC[C@]2(C)[C@@H]([C@H](C)CCC(O)C(F)(F)F)CC[C@@H]12 (stereo partly shown),A (“A” indicates 10 to 150%)
3,CCC(O)(CC)CC[C@@H](C)[C@H]1CC[C@H]2[C@@H]3CC=C4C[C@@](C)(O)CC[C@]4(COC)[C@H]3CC[C@]12C,A (“A” indicates 10 to 150%)
4,COC[C@]12CC[C@](C)(O)CC1=CC[C@@H]1[C@@H]2CC[C@]2(C)[C@@H]([C@H](C)CCC(C)(C)O)CC[C@@H]12 [drawing 28],A (“A” indicates 10 to 150%)
5,COC[C@]12CC[C@](C)(O)C[C@@H]1CC[C@H]1[C@@H]3CC[C@H]([C@H](C)CCC(C)(C)O)[C@@]3(C)CC[C@@H]12 [drawing 32],A (“A” indicates 10 to 150%)
